Measured values published in patent US20260242416A1, “ANTIMICROBIAL PEPTIDES” (priority 2023, published 2026).
Values after ≈ are worked out from the molar mass of the structure shown. “Also recorded” adds a separate entry of the source. Where a SMILES comes first, the peptide text is derived from it.

Experiments:
[1] = tested on: Escherichia coli ATCC 25922; experiment: Antimicrobial susceptibility testing (MIC/MBC), Example 1; type: cell-based; settings: Table 3; footnote: wild-type Escherichia coli ATCC 29522; minimum of three independent experiments
Procedure: Twenty-one putative AMP sequences identified using the rAMPage pipeline were validated through a minimum of three AST experiments performed independently on separate days. In these tests, the AMP activity was assessed using two metrics: minimum inhibitory concentration and minimum bactericidal concentration (MIC and MBC, respectively). MIC and MBC values were determined using procedures outlined by the Clinical and Laboratory Standards Institute (CLSI), with the recommended adaptations for the testing of cationic AMPs described previously. “Wild-type” strains of Escherichia coli (E. coli 25922) and Staphylococcus aureus (S. aureus 29213) were purchased from the American Type Culture Collection (ATCC; Manassas, VA, USA) and were used for screening of antimicrobial activity. Briefly, putative AMPs were synthesized by Genscript (Piscataway, NJ, USA) and received in lyophilized format. These peptides were suspended using ultrapure water (Life Technologies, Grand Island, NY, USA; Invitrogen cat #10977-015), and an 11 μL two-fold serial dilution of 1280 to 2.5 μg/mL was prepared in duplicate rows in a 96-well microtiter plate, before being combined with 100 μL standardized bacterial inoculum yielding a final duplicate testing range of 128 to 0.25 μg/mL. The bacterial inoculum was prepared using colonies isolated on non-selective agar and combined with Mueller Hinton Broth. This suspension was measured and adjusted to achieve an optical density of 0.08-0.1, equivalent to a 0.5 McFarland standard (1-2×10^8 cfu/mL). The inoculum was then diluted to a target concentration of 5±3×10^5 cfu/mL; total viable counts from the final inoculum were routinely performed to confirm the target bacterial density was achieved. […] The MIC and adjacent wells were plated onto non-selective agar; the concentration in which killed 99.9% of the inoculum following additional overnight incubation was determined to be the MBC.

[2] = tested on: E. coli ATCC 25922, Salmonella Enteritidis, S. aureus ATCC 29213; experiment: Broth microdilution, panel result (at least one / all strains), Example 2; type: cell-based; set-up: key to inhibitory activity (asterisk): *Indicates inhibitory activity; settings: Table 14; against at least one of E. coli ATCC 25922, Salmonella Enteritidis, S. aureus ATCC 29213
Outline: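 CLSI broth microdilution adapted for cationic peptides, in MHB with a final inoculum of 2-8×10^5 cfu/mL in polypropylene plates. Peptides were serially diluted from 128 down to 0.5 μg/mL and incubated 20-24 h at 37° C. MIC is the lowest concentration with no visible growth.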

porcine red blood cells = experiment: Hemolysis assay (HC50), Example 2; settings: up to 128 μg/mL
Procedure: Peptides were evaluated for toxicity using three independent hemolysis experiments. Whole blood from healthy donor pigs, supplemented with Na Citrate, was purchased from Lampire Biological Laboratories (Pipersville, PA, USA). Red blood cells (RBCs) were washed and isolated by three centrifugation cycles using Roswell Park Memorial Institute medium (RPMI; Thermo-Fisher Scientific) to create a 1% (v/v) RBC solution. […] Following a minimum 30 min incubation at 37° C., plates were centrifuged and % volume from each supernatant was transferred to a new 96-well plate. The absorbance of these wells was measured at 415 nm. To quantify hemolytic activity and determine the AMP concentration that lyses 50% of the RBCs (HC50), absorbance reading from wells containing RBCs treated with 11 μL of a 2% TritonX-100 detergent solution (TX-100) or RPMI (AMP solvent-only) were used to define 100% and 0% hemolysis, respectively. All centrifugation steps were performed at 500× g for five minutes in an Allegra-6R centrifuge (Beckman Coulter, Brea, CA, USA).

[3] = tested on: Staphylococcus aureus ATCC 29213; type: cell-based; settings: Table 3; wild-type Staphylococcus aureus ATCC 29213; minimum of three independent experiments
Procedure: Twenty-one putative AMP sequences identified using the rAMPage pipeline were validated through a minimum of three AST experiments performed independently on separate days. In these tests, the AMP activity was assessed using two metrics: minimum inhibitory concentration and minimum bactericidal concentration (MIC and MBC, respectively). MIC and MBC values were determined using procedures outlined by the Clinical and Laboratory Standards Institute (CLSI), with the recommended adaptations for the testing of cationic AMPs described previously. “Wild-type” strains of Escherichia coli (E. coli 25922) and Staphylococcus aureus (S. aureus 29213) were purchased from the American Type Culture Collection (ATCC; Manassas, VA, USA) and were used for screening of antimicrobial activity. Briefly, putative AMPs were synthesized by Genscript (Piscataway, NJ, USA) and received in lyophilized format. […] This suspension was measured and adjusted to achieve an optical density of 0.08-0.1, equivalent to a 0.5 McFarland standard (1-2×10^8 cfu/mL). […]

E. coli ATCC 25922 = type: cell-based, Escherichia coli; settings: for MIC (ug/mL) E. coli: Table 14, first value of the cell, three independent experiments, highest concentration tested 128
Outline: (§1)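 MIC taken as lowest peptide level showing no visible growth after 20-24 h at 37° C. Twofold series 128-0.5 μg/mL in Mueller-Hinton broth, polypropylene plates, final inoculum 2-8×10^5 cfu/mL, per CLSI with cationic-peptide adaptations.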

[4] = tested on: Salmonella enterica serovar Enteritidis (human clinical isolate); type: cell-based; settings: for MIC (ug/mL) S. Enteritidis: Table 14, second value of the cell, three independent experiments, highest concentration tested 128
Outline: as §1

S. aureus ATCC 29213 = type: cell-based, Staphylococcus aureus; settings: Table 14, third value of the cell; three independent experiments; highest concentration tested 128
Outline: as §1

HEK293 cells = experiment: alamarBlue cell viability assay (cytotoxicity); type: cell-based, human; settings: concentrations up to 128 μg/mL
Procedure: (§2) The human embryonic kidney cell line HEK293 and the corresponding growth media and supplements were purchased from the ATCC. The cells were maintained in Eagle's Minimum Essential Medium (EMEM) supplemented with 10% fetal bovine serum (FBS) and 1% Penicillin-Streptomycin solution and grown in a 5% CO2 incubator at 37° C. […] Cells were incubated overnight to allow them to adhere. […] TX-100 was diluted to 2% in UltraPure deionized water and added as a positive control. Complete growth medium was added to the peptides and TX-100 containing wells. Spent growth medium of wells with adhered cells was replaced with the contents of wells containing serially diluted peptides or TX-100. Cells were incubated for four hours at 37° C. in 5% CO2 incubator. Growth medium containing peptides or TX-100 was replaced with fresh growth medium containing 10% (v/v) alamarBlue (Bio-Rad Laboratories, Hercules, CA, USA) and incubated for 20 h. Fluorescence was measured at excitation of 540 nm and emission of 590 nm in a Cytation 5 plate reader (Agilent BioTek, Winooski, VT, USA) and results recorded and analyzed with Gen5 software (Agilent BioTek, Winooski, VT, USA). The average fluorescence reads of TX-100 and growth media only wells were used to calculate 0% and 100% cell viability, respectively. The percentage of viable cells at each peptide concentration was determined by Formula 1: […]

[5] = alamarBlue cell viability assay (cytotoxicity); type: cell-based, human; settings: human, HEK293 cells, at 128 μg/mL
Procedure: as §2

| Structure (SMILES) | MIC* (μg/mL) E. coli [1] [µg⁻¹ mL⁻¹] | inhibitory activity (asterisk) [2] | hemolytic activity (porcine red blood cells) | MIC* (μg/mL) S. aureus [3] [µg/mL] | MIC (ug/mL) E. coli (E. coli ATCC 25922) [µg/mL] | MIC against Salmonella Enteritidis [4] [µg/mL] | MIC (ug/mL) S. Enteritidis [4] [µg/mL] | MIC (ug/mL) S. aureus (S. aureus ATCC 29213) [µg/mL] | cytotoxicity (HEK293 cells) | MIC against E. coli (E. coli ATCC 25922) [µg/mL] | viability at 4 h, 128 µg/mL [5] [%] |
| --- | --- | --- | --- | --- | --- | --- | --- | --- | --- | --- | --- |
| CC[C@H](C)[C@H](NC(=O)[C@H](CCCCN)NC(=O)[C@H](CS)NC(=O)[C@H](CCCCN)NC(=O)[C@H](CC(C)C)NC(=O)[C@H](CC(N)=O)NC(=O)[C@H](Cc1ccc(O)cc1)NC(=O)[C@H](CC(C)C)NC(=O)[C@H](CC(C)C)NC(=O)[C@@H](NC(=O)[C@@H](NC(=O)[C@H](C)NC(=O)[C@@H](NC(=O)[C@H](CC(N)=O)NC(=O)[C@H](CCCCN)NC(=O)[C@H](C)NC(=O)[C@@H](NC(=O)[C@H](CC(N)=O)NC(=O)[C@H](CCCCN)NC(=O)[C@H](C)NC(=O)[C@@H](NC(=O)[C@H](CC(=O)O)NC(=O)[C@H](CCSC)NC(=O)[C@H](Cc1ccccc1)NC(=O)CN)[C@@H](C)O)C(C)C)C(C)C)C(C)C)[C@@H](C)O)C(=O)N[C@H](C(=O)N[C@@H](CCCCN)C(=O)N[C@@H](C)C(=O)N[C@@H](CS)C(=O)O)[C@@H](C)O [OdMa12] (H-GFMDTAKNVAKNVAVTLLYNLKCKITKAC-OH; N-terminus and C-terminus assumed) | 4 | 69.* GFMDTAKNVAKNVAVTLLYNLKCKITKAC | – | – | – | – | – | – | – | – | – |
| CC[C@H](C)[C@H](NC(=O)CNC(=O)[C@H](C)NC(=O)[C@@H](NC(=O)[C@H](CC(N)=O)NC(=O)[C@H](CCCCN)NC(=O)[C@H](C)NC(=O)[C@H](C)NC(=O)CNC(=O)[C@H](CCCCN)NC(=O)[C@@H](NC(=O)[C@@H](NC(=O)[C@H](CC(=O)O)NC(=O)[C@H](CC(C)C)NC(=O)[C@H](CC(C)C)NC(=O)[C@H](CC(C)C)NC(=O)CN)[C@@H](C)O)C(C)C)C(C)C)C(=O)N[C@@H](CC(C)C)C(=O)N[C@@H](CC(C)C)C(=O)N[C@@H](CC(N)=O)C(=O)N[C@@H](CCCCN)C(=O)N[C@@H](CC(C)C)C(=O)N[C@@H](CCCCN)C(=O)N[C@@H](CS)C(=O)N[C@@H](CCCCN)C(=O)N[C@H](C(=O)N[C@H](C(=O)NCC(=O)N[C@@H](CC(=O)O)C(=O)N[C@@H](CS)C(=O)O)[C@@H](C)O)C(C)C [PeNi10] (H-GLLLDTVKGAAKNVAGILLNKLKCKVTGDC-OH; N-terminus and C-terminus assumed) | 8 | 1086.* GLLLDTVKGAAKNVAGILLNKLKCKVTGDC | – | – | – | – | – | – | – | – | – |
| CC(C)C[C@H](NC(=O)[C@H](CCCCN)NC(=O)[C@H](CCC(=O)O)NC(=O)[C@H](CC(C)C)NC(=O)[C@H](CCCNC(=N)N)NC(=O)[C@@H](NC(=O)[C@H](Cc1ccc(O)cc1)NC(=O)[C@H](CC(N)=O)NC(=O)[C@H](CCCCN)NC(=O)[C@H](CCCCN)NC(=O)[C@H](CC(N)=O)NC(=O)[C@@H](NC(=O)[C@H](CC(C)C)NC(=O)[C@H](CCCCN)NC(=O)[C@H](CCCCN)NC(=O)[C@@H](NC(=O)[C@H](CO)NC(=O)[C@H](CCCCN)NC(=O)[C@H](CO)NC(=O)[C@H](CC(C)C)NC(=O)[C@H](Cc1c[nH]c2ccccc12)NC(=O)[C@@H](N)CO)C(C)C)C(C)C)[C@@H](C)O)C(=O)N[C@@H](C)C(=O)N[C@@H](CCCCN)C(=O)N[C@@H](CCCCN)C(=O)N[C@@H](CCCCN)C(=O)N[C@@H](CC(C)C)C(=O)N[C@@H](Cc1ccccc1)C(=O)N[C@@H](CC(N)=O)C(=O)N[C@@H](CCC(=O)O)C(=O)O [TeRu4] (H-SWLSKSVKKLVNKKNYTRLEKLAKKKLFNE-OH) | – | – | not hemolytic at the concentrations tested; also recorded: not toxic against either porcine erythrocytes or HEK293 cells | >128 | 1 (≈ 0.276 µM) | 2 to 4 | 2 to 4 | > 128 | not to be toxic to HEK293 cells at any of the concentrations tested; also recorded: not toxic against either porcine erythrocytes or HEK293 cells | – | – |
| CC[C@H](C)[C@H](NC(=O)[C@@H](N)CCCCN)C(=O)N[C@@H](CCCCN)C(=O)N[C@H](C(=O)N1CCC[C@H]1C(=O)N[C@@H](Cc1c[nH]c2ccccc12)C(=O)NCC(=O)N[C@@H](CCCCN)C(=O)N[C@H](C(=O)N[C@@H](CCCCN)C(=O)N[C@@H](CC(=O)O)C(=O)N[C@@H](Cc1ccccc1)C(=O)N[C@@H](CC(C)C)C(=O)N[C@H](C(=O)NCC(=O)NCC(=O)N[C@@H](CCSC)C(=O)N[C@@H](CCCCN)C(=O)N[C@@H](C)C(=O)N[C@H](C(=O)NCC(=O)N[C@@H](CCCCN)C(=O)N[C@@H](CCCCN)C(=O)O)C(C)C)C(C)C)C(C)C)[C@@H](C)CC [TeBi1] (H-KIKIPWGKVKDFLVGGMKAVGKK-OH) | – | – | not hemolytic at the concentrations tested | 2 to 8 | 1 to 2 | – | 4 to 8 | 4 to 8 | low or no cytotoxicity at lower concentrations; also recorded: high levels of cytotoxicity at concentrations higher than their MICs | 1 to 2 | 40 |
| CC[C@H](C)[C@H](NC(=O)[C@H](CCCCN)NC(=O)[C@H](CC(=O)O)NC(=O)[C@H](CC(C)C)NC(=O)[C@@H](NC(=O)CNC(=O)[C@@H](NC(=O)[C@H](CO)NC(=O)[C@H](Cc1ccccc1)NC(=O)[C@H](CC(N)=O)NC(=O)[C@H](CCCCN)NC(=O)[C@@H](NC(=O)CNC(=O)[C@H](CCC(=O)O)NC(=O)[C@H](CCCCN)NC(=O)[C@@H](NC(=O)[C@@H](NC(=O)[C@@H](NC(=O)[C@H](Cc1c[nH]c2ccccc12)NC(=O)[C@H](CC(C)C)NC(=O)CN)[C@@H](C)O)[C@@H](C)O)[C@@H](C)CC)C(C)C)C(C)C)C(C)C)C(=O)N[C@@H](CCCNC(=N)N)C(=O)N[C@@H](CS)C(=O)N[C@@H](CCCCN)C(=O)N[C@H](C(=O)N[C@H](C(=O)NCC(=O)NCC(=O)N[C@@H](CS)C(=O)O)[C@@H](C)O)[C@@H](C)CC [PeNi14] (H-GLWTTIKEGVKNFSVGVLDKIRCKITGGC-OH; N-terminus and C-terminus assumed) | 4 to 8 | 15.* GLWTTIKEGVKNFSVGVLDKIRCKITGGC | – | – | – | – | – | – | – | – | – |
